Laboratory results published in US20100190105A1, “LITHOGRAPHIC PRINTING PLATE PRECURSOR” (Agfa Graphics NV, priority 2007, published 2010).

Test: Absorption maximum of asymmetric sensitizers
Assay type: physicochemical
From the text: The asymmetric sensitizers AS-02, AS-03, AS-04 and AS-05 were obtained using a similar preparation method. The asymmetric sensitizers AS-01 to AS-05 are given in Table 2 together with their absorption maximum (Abs.Max (nm)) and their melting point (° C.).

| SMILES | Abs. Max |
| --- | --- |
| CCCCC(CC)COc1c(OC)cc(/C=C/c2ccc(/C=C/c3cc(OC)c(OC(C)CC)c(OC)c3)cc2)cc1OC (centres unmarked) [AS-01] | 371 nm |
| CCC(C)Oc1c(OC)cc(/C=C/c2ccc(/C=C/c3cc(OC)c(OC(CC)CC)c(OC)c3)cc2)cc1OC (centres unmarked) [AS-02] | 370 nm |
| CCC(C)Oc1c(OC)cc(/C=C/c2ccc(/C=C/c3cc(OC)c(OC4CCCCC4)c(OC)c3)cc2)cc1OC (centres unmarked) [AS-03] | 371 nm |
| CCC(C)Oc1c(OC)cc(/C=C/c2ccc(/C=C/c3cc(OC)c(OC4CCCC4)c(OC)c3)cc2)cc1OC (centres unmarked) [AS-04] | 371 nm |
| CCC(C)Oc1c(OC)cc(/C=C/c2ccc(/C=C/c3cc(OC)c(OCCO)c(OC)c3)cc2)cc1OC (centres unmarked) [AS-05] | 371 nm |
